Source: Sander's compilation of Henry's law constants (doi:10.1021/jf60162a025)

Experiment: Henry solubility constant Hcp at 298.15 K (mol/(m3 Pa))
Details: reference: Buttery et al. (1969)

Structure (SMILES)	Henry solubility constant Hcp
CCCCCCO [1-hexanol]	0.58
CCCCCCCCO [1-octanol]	0.4
CCCCCC(C)=O [2-heptanone]	0.068
CCCCCCCC(C)=O [2-nonanone]	0.027
CCCCCCC(C)=O [2-octanone]	0.052
CCCC(C)=O [2-pentanone]	0.16
CCCCCCCCCC(C)=O [2-undecanone]	0.016
CCCC=O [butanal]	0.086
CCCCCCC=O [heptanal]	0.037
CCCC(=O)OC [methyl butanoate]	0.048
COC(C)=O [methyl ethanoate]	0.086
CCCCCC(=O)OC [methyl hexanoate]	0.027
CCCCCCCC(=O)OC [methyl octanoate]	0.013
CCCCC(=O)OC [methyl pentanoate]	0.031
CCC(=O)OC [methyl propanoate]	0.057
CCCCCCCCC=O [nonanal]	0.013
CCCCCCCC=O [octanal]	0.019
CCCCC=O [pentanal]	0.067
CC(C)=O [propanone]	0.25
